Holding throughout (assay): NCI-60 cell line screen, 48 h
In assay [1] the test system is HL-60(TB) leukemia.
The subject of assay [2] is K-562 leukemia.
Assay [3] has as its system NCI-H226 lung.
The subject of assay [4] is OVCAR-4 ovarian.
For assay [5], the system named is RXF 393 renal.
Assay [6] has as its system SF-268 CNS.
Assay [7] concerns SF-539 CNS.
Assay [8] deals with SNB-75 CNS.
For assay [9], the system named is TK-10 renal.
Assay [10] concerns EKVX NSCLC.

Values joined by “and” are separate entries in the source; they are usually repeats but may differ in a detail not shown here. Equal values may be shown once.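 Compound exposure: 48 hours, 5 concentrations, 96-well plates. GI50 marks 50% less growth. Definition used: TGI = concentration required for complete inhibition of growth.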

For `C[C@@H](CS(C)(=O)=O)Nc1ncc2cc(Oc3ccc(F)cc3F)c(=O)n(C)c2n1`, the GI50 in assay [1], in [2], in assay [3], in [4], in assay [5] and in [6] was greater than 25 µM in each case. Also, the GI50 in assay [7], in assay [8] and in assay [9] was greater than 25 µM in each case. For the same compound, the TGI in [1], in [2], in assay [3], in [4], in [5] and in [6] was greater than 25 µM throughout. Besides, the TGI in assay [7], in assay [8] and in assay [9] was greater than 25 µM throughout.

On to `COc1ccccc1NC(=O)CC(=O)n1nc(C)c(N=Nc2ccccc2C(=O)O)c1C`, for which the TGI was 83.5 µM in assay [10]; greater than 100 µM in [1]; greater than 100 µM in assay [2]; greater than 100 µM in [4]; greater than 100 µM in assay [6]; greater than 100 µM in [7]. Moreover, the TGI in assay [8] and in assay [9] was greater than 100 µM each time.

For `COC(=O)[C@@H](C)C[C@H](Cc1ccc(F)cc1)NC(=O)c1csc([C@@H](C[C@H](C(C)C)N(C)C(=O)[C@@H](NC(=O)[C@H]2CCCCN2C)C(C)C)OC(C)=O)n1`, the TGI in [10] was greater than 16.7 µM; in assay [1], 0.00229 µM and 0.00952 µM; in assay [2], greater than 16.7 µM; in [4], greater than 16.7 µM; in [6], greater than 16.7 µM; in assay [8], greater than 16.7 µM. Further, the GI50 in assay [6] was 0.00441 µM and 0.00923 µM; in [7], 0.00153 µM and 0.00714 µM; in assay [8], 0.000986 µM and 0.00522 µM.

`COc1cc2cnc3c4cc(OC(C)C)c(OC)cc4ccc3c2cc1OC`: the TGI in assay [10], in assay [2], in [4], in assay [6], in assay [7] and in assay [8] was greater than 100 µM each time. Further, the TGI in assay [9] was greater than 100 µM.

As to `O=c1cc(-c2cccc(O)c2)[nH]c2cc3c(cc12)OCO3`, the TGI in [1] is greater than 19.9 µM; in assay [2], greater than 100 µM; in [3], 23.8 µM; in [4], greater than 100 µM; in assay [5], greater than 100 µM; in assay [6], greater than 69.6 µM. Further, the TGI in [7] is 4.39 µM; in [8], 20.5 µM; in assay [9] it was greater than 100 µM.

On to `O=[S@@]1Nc2ccc(Br)cc2S1`, for which the TGI in assay [10] was greater than 100 µM; in [1], 65.2 µM; in assay [2], greater than 100 µM; in assay [3], greater than 100 µM; in [6] it was greater than 100 µM; in assay [7] it was greater than 100 µM. For the same compound, the TGI in assay [8] and in [9] was greater than 100 µM in each case.

With `Nc1cc2nc3ccccc3sc-2cc1=O`, the GI50 is 2.07 µM in [1]; 2.48 µM in assay [2]; 4.62 µM in assay [3]; 2.15 µM in [4]; 2.13 µM in [5]; 2.53 µM in assay [6]. The GI50 is 2.01 µM in assay [7], 2.59 µM in assay [8] and 5.72 µM in assay [9]. In addition, the TGI in assay [1] is 5.78 µM; in [2] it was greater than 100 µM; in [3], 28.4 µM; in assay [4], 6.21 µM; in assay [5], 6.14 µM; in assay [6], 8.67 µM. For the same compound, the TGI in [7] was 4.26 µM; in assay [8], 7.71 µM; in assay [9], 16.2 µM.

On to `C=CCc1cc(OC)c2c(c1)C(O)CC(c1ccc(OC)c(OC)c1)O2` (stereo not drawn), for which the TGI in [10], in assay [1], in assay [2], in assay [3], in assay [4] and in assay [6] was greater than 100 µM throughout. The TGI in [7], in assay [8] and in [9] was greater than 100 µM in each case.

For `N#CC(C#N)=c1ccc(=C2NCC3CCCN23)cc1` (stereo not drawn), the TGI in assay [1], in assay [2], in [3], in assay [4], in assay [5] and in assay [6] was greater than 100 µM each time. The TGI in assay [7], in [8] and in assay [9] was greater than 100 µM each time.

Turning to `COc1cccc(NC(=O)CC(=O)n2nc(C)c(N=Nc3ccccc3)c2C)c1`, the TGI in assay [10], in [3], in [4], in [6], in [7] and in assay [8] was greater than 100 µM throughout. In addition, the TGI in assay [9] was greater than 100 µM.

For `Clc1cccc(Cc2cn3cc(-c4ccccc4)nc3s2)c1Cl`, the GI50 in [1] is greater than 100 µM; in assay [2], greater than 100 µM; in assay [3], 27.3 µM; in assay [4] it was 3.85 µM; in [5], 3.13 µM; in assay [6] it was 59.9 µM. In addition, the values for the GI50 in assay [7] and in assay [9] were 43.3 µM and 26.1 µM, respectively. For the same compound, the TGI in [1] was greater than 100 µM; in [2], greater than 100 µM; in assay [3] it was greater than 100 µM; in assay [4], 55.2 µM; in assay [5] it was 18.7 µM; in assay [6], greater than 100 µM. The TGI in assay [7] and in assay [9] was greater than 100 µM each time.

Turning to `O=C(CSC(=S)N1CCCCC1)Nc1nc2c(s1)CCCC2`, the TGI was 33.8 µM in [1]; greater than 100 µM in assay [3]; greater than 100 µM in [4]; greater than 100 µM in assay [6]; greater than 100 µM in assay [7]; greater than 100 µM in [8]. Further, the TGI in assay [9] is greater than 100 µM.

For the compound `O=C1/C(=C/c2ccc([N+](=O)[O-])cc2)COc2ccc(O)c(O)c21`, the GI50 in assay [10] is 1.77 µM; in [1], 0.896 µM; in [2] it was 0.547 µM; in [3], 11 µM; in [4], 1.44 µM; in assay [6] it was 1.51 µM. In addition, the GI50 was 1.7 µM in [7], 1.55 µM in assay [8] and 1.68 µM in assay [9]. Besides, the TGI in assay [10] was 3.72 µM; in assay [1] it was 6.45 µM; in [2] it was greater than 100 µM; in assay [3], 45.8 µM; in [4] it was 2.78 µM; in assay [6], 3.15 µM. In addition, the TGI in assay [7] amounted to 3.33 µM; in assay [8], 3.82 µM; in assay [9] it was 3.99 µM.

These data come from PubChem BioAssay (NCI).
